Laboratory results as given in ChEMBL document CHEMBL5036330, “Discovery of 8,9-seco-ent-Kaurane Diterpenoids as Potential Leads for the Treatment of Triple-Negative Breast Cancer” (J Med Chem, 2021).

Tests used:
MCF7 = assay: Cytotoxicity against human MCF7 cells assessed as reduction in cell viability incubated for 96 hrs by MTT method; assay type: functional, cell-based; conditions: MCF7, 96 h
MDA-MB-468 = assay: Cytotoxicity against human MDA-MB-468 cells assessed as reduction in cell viability incubated for 96 hrs by MTT method; assay type: functional, cell-based; conditions: MDA-MB-468, 96 h
MDA-MB-231 = assay: Cytotoxicity against human MDA-MB-231 cells assessed as reduction in cell viability incubated for 96 hrs by MTT method; assay type: functional, cell-based; conditions: MDA-MB-231, 96 h
MCF-10A = assay: Cytotoxicity against human MCF-10A cells assessed as reduction in cell viability incubated for 96 hrs by MTT method; assay type: cell-based
L02 = assay: Cytotoxicity against human L02 cells assessed as reduction in cell viability incubated for 96 hrs by MTT method; assay type: cell-based; conditions: L02, 96 h
HEK293 = assay: Cytotoxicity against HEK-293 cells assessed as reduction in cell viability incubated for 96 hrs by MTT method; assay type: cell-based; conditions: Homo sapiens, HEK293, 96 h

Compound	IC50 (MCF7) [nM]	IC50 (MDA-MB-468) [nM]	IC50 (MDA-MB-231) [nM]	IC50 (MCF-10A) [nM]	IC50 (L02) [nM]	IC50 (HEK293) [nM]
C=C1C(=O)C2=C[C@H]1CCC(=O)[C@]1(C)C(=O)CCC(C)(C)[C@H]1C[C@H]2OC(C)=O	538	215	28.7			
C=C1C(=O)[C@@]23[C@H](O)C[C@@H]4C(C)(C)CC[C@@H](O)[C@@]4(C)[C@]2(O)CC[C@@H]1[C@H]3O	248	116	153			
C=CC(=O)O[C@@H]1C[C@@H]2C(C)(C)CC[C@@H](O)[C@@]2(C)C(=O)CC[C@@H]2C=C1C(=O)C2=C	1220	382	166			
C=C1C(=O)C2=C[C@H]1CCC(=O)[C@]1(C)[C@H](O)CCC(C)(C)[C@H]1C[C@H]2OC(=O)CCl	1090	909	551			
C=C1C(=O)O[C@H]2C3=C(CC[C@@H]12)[C@@]1(C)[C@H](CC3=O)C(C)(C)CC[C@H]1OC(C)=O	1240	842	1770			
C=C1C(=O)C2=C[C@H]1CCC(=O)[C@]1(C)C(=O)CCC(C)(C)[C@H]1C[C@H]2O	379	194	124			
C=C1C(=O)C2=C[C@H]1CCC(=O)[C@@]1(C)[C@H](C[C@H]2OC(C)=O)C(C)(C)CC[C@H]1OC(C)=O	226	762	978			
CC1(C)C(=O)CC[C@]2(C)[C@@H]1CC[C@@]13C[C@@H](CC[C@H]12)[C@@H](CO)C3	> 5000	> 5000	> 5000			
C=C1C(=O)C2=C[C@H]1CCC(=O)[C@@]1(C)[C@H](C[C@H]2OC(=O)CCl)C(C)(C)CC[C@H]1OC(C)=O	235	643	1080			
C=C1C(=O)C2=C[C@H]1CCC(=O)[C@@]1(C)[C@H](C[C@H]2OCC)C(C)(C)CC[C@H]1OC(C)=O	266	236	677			
C[C@H]1C(=O)[C@]23C[C@H]1CC[C@@]2(O)[C@]1(C)[C@H](O)CCC(C)(C)[C@H]1C[C@H]3O	> 5000	> 5000	> 5000			
CC1(C)C(=O)CC[C@]2(C)[C@@H]1CC[C@]13C[C@H]4C[C@H](O[C@@]4(C)C1)[C@H]32	> 5000	> 5000	> 5000			
C=C1C(=O)C2=C[C@H]1CCC(=O)[C@]1(C)[C@H](O)CCC(C)(C)[C@H]1C[C@H]2OC(C)=O	587	257	561			
C=C1C(=O)[C@]23O[C@H]2[C@H]1CCC(=O)[C@]1(C)[C@H](O)CCC(C)(C)[C@H]1C[C@H]3O	1600	319	473			
CC1(C)C(=O)CC[C@]2(C)[C@@H]1CC[C@@]13C[C@@H](CC[C@H]12)[C@@](O)(CO)C3	> 5000	> 5000	> 5000			
C=C(C)CC(=O)O[C@@H]1C[C@@H]2C(C)(C)CC[C@@H](O)[C@@]2(C)C(=O)CC[C@@H]2C=C1C(=O)C2=C	1190	890	564			
C=C1C(=O)C2=C[C@H]1CCC(=O)[C@]1(C)[C@H](O)CCC(C)(C)[C@H]1C[C@H]2OC(=O)CC	999	893	983			
C=C1C(=O)C2=C[C@H]1CCC(=O)[C@]1(C)C(=O)CCC(C)(C)[C@H]1C[C@H]2OC(=O)CCl	505	345	1610			
C=C1C(=O)C2=C[C@H]1CCC(=O)[C@]1(C)[C@H](O)CCC(C)(C)[C@H]1C[C@H]2OC	215	121	185			
C[C@H]1C(=O)C2=C[C@H]1CCC(=O)[C@]1(C)[C@H](O)CCC(C)(C)[C@H]1C[C@H]2O	> 5000	> 5000	> 5000			
C=C1C(=O)C2=C[C@H]1CCC(=O)[C@@]1(C)[C@H](C[C@H]2O)C(C)(C)CC[C@H]1OC(C)=O	120	228	177			
C=CC(=O)O[C@@H]1C[C@@H]2C(C)(C)CC[C@@H](OC(=O)C=C)[C@@]2(C)C(=O)CC[C@@H]2C=C1C(=O)C2=C	1120	395	237			
C=C1C(=O)C2=C[C@H]1CCC(=O)[C@]1(C)C(=O)CCC(C)(C)[C@H]1C[C@H]2OC(=O)c1ccccc1	882	2070	2000			
C=C1C(=O)C2=C[C@H]1CCC(=O)[C@]1(C)[C@H](O)CCC(C)(C)[C@H]1C[C@H]2OC(=O)c1ccccc1	999	301	466			
COc1cccc2c1C(=O)c1c(O)c3c(c(O)c1C2=O)C[C@@](O)(C(=O)CO)C[C@@H]3O[C@H]1C[C@H](N)[C@H](O)[C@H](C)O1 [DOXORUBICIN]		52.1	80.5	33	256	106
